# Structures can show the parent of a compound that is named as a salt.
# Target: T1, Human recombinant full-length MNK1 protein (Homo sapiens, UniProt Q9BUB5)
# T1 construct: Human recombinant full-length MNK1 protein; purchased Thermo PR9138A
# Assay: MNK1 inhibitory activity assay (ADP-Glo in vitro kinase assay)
# Assay type: biochemical
# Conditions: 10 concentration points
# Protocol: MNK1 Inhibitory Activity Assay: Evaluation of the effects of compounds of the invention on […] (MNK1) activity using in vitro kinase assays. The experimental methods are summarized as follows: The in vitro activity of MNK1 was determined by measuring the level of ADP produced in the kinase reaction using the ADP-Glo Kinase Assay Kit. The reaction buffer consisted of the following components: 50 mM HEPES, pH 7.5, 10 mM MgCl2, 1 mM EGTA, 0.01% Brij35. Human recombinant full-length MNK1 protein (Thermo, Cat. No. PR9138A) was diluted with a reaction buffer to a 3.13 ng/uL kinase solution. The substrate reaction solution consisted of a substrate diluted to 0.75 mg/ml in reaction buffer ([…], available from […] Domestic Company), 2250 uM ATP, the ADP-Glo reagent and kinase assay solution from Promega kit (Promega, V9102). […] If the compound IC50 value is very low, the initial concentration of the compound can be lowered. To a 384-well assay plate (Thermo, Cat. No. 264706) were added 1 uL of compound solution and 2 uL of MNK1 kinase solution. The mixture was mixed well and incubated for 30 minutes at room temperature; then 2 uL of substrate reaction solution was added, the reaction mixture was incubated for 120 minutes at room temperature. The reaction was terminated after an equal volume of 5uLADP-Glo solution was added, and the remaining ATP was completely consumed. After mixing for 60 minutes at room temperature, 10 ul of the kinase assay solution was added, and the mixture was uniformly mixed, and allowed to stand at room temperature for 40 minutes in the dark. The detection solution converts ADP into new ATP through coupled luciferase/luciferin, and ATP is converted into optical signal by Ultr-GloTM luciferase, which can be detected by Envision. The intensity of the light signal is proportional correlated with the amount of ADP produced in the kinase reaction, therefore, the activity of MNK1 kinase can be determined. In this experiment, the group without protein was used as a negative control (100% inhibition). The group with protein but without compounds was used as a positive control (0% inhibition).
# T1 sequence (Q9BUB5 whole entry): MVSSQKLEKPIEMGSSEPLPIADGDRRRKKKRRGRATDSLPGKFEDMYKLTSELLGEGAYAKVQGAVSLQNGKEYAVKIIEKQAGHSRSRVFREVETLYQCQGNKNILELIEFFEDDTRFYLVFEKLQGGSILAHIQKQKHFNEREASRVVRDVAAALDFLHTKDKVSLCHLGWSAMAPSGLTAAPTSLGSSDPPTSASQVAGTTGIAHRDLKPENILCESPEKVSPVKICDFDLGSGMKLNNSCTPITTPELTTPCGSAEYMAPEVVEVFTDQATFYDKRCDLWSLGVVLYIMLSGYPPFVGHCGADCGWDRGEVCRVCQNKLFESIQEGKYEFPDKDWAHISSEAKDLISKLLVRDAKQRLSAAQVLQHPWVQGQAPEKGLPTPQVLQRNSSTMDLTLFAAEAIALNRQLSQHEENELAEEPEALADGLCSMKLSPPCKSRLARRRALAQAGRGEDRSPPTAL
row,SMILES,IC50
1,"COc1cc2c(cnn2C(=O)OC(C)(C)C)cc1Nc1cc(NC(C)=O)ncn1 [Compound 1, 1-tert-Butoxycarbonyl-5-(6-acetylaminopyrimidin-4-ylamino)-6-methoxyindazole]",15.5 nM
2,"COc1cc2[nH]ncc2cc1Nc1cc(NC(C)=O)ncn1 [Compound 2, 5-(6-Acetylaminopyrimidin-4-ylamino)-6-methoxy-1H-indazole]",59.5 nM
3,"COc1cc2c(cnn2C(=O)OC(C)(C)C)cc1Nc1cc(NC(=O)C2CC2)ncn1 [Compound 3, 1-tert-Butoxycarbonyl-5-(6-cyclopropionamidopyrimidin-4-ylamino)-6-methoxyindazole]",11.3 nM
4,"COc1cc2[nH]ncc2cc1Nc1cc(N)ncn1 [Compound 9, 5-(6-aminopyrimidin-4-ylamino)-6-methoxy-1H-indazole]",294 nM
5,"COc1cc2[nH]ncc2cc1Nc1cc(NC(=O)c2ccccc2)ncn1 [Compound 10, 5-(6-benzoylaminopyrimidin-4-ylamino)-6-methoxy-1H-indazole]",23.8 nM
6,"COc1cc2[nH]ncc2cc1Nc1cc(NC(=O)c2ccccn2)ncn1 [Compound 11, 5-(6-(2-Pyridine) formylaminopyrimidin-4-ylamino)-6-methoxy-1H-indazole]",532 nM
7,"COc1cc2[nH]ncc2cc1Nc1cc(NC(=O)C(C)(C)C)ncn1 [Compound 12, 5-(6-Pivaloylaminopyrimidin-4-ylamino)-6-methoxy-1H-indazole]",729 nM
8,"COc1cc2c(cnn2C(=O)C(C)C)cc1Nc1cc(NC(=O)C2CC2)ncn1 [Compound 13, 1-Isobutyryl-5-(6-cyclopropionamidopyrimidin-4-ylamino)-6-methoxyindazole]",225 nM
9,"COC(=O)n1ncc2cc(Nc3cc(NC(=O)C4CC4)ncn3)c(OC)cc21 [Compound 17, 1-Methoxyacyl-5-(6-cyclopropionamidopyrimidin-4-ylamino)-6-methoxyindazole]",27.9 nM
10,"COc1cc2[nH]ncc2cc1Nc1cc(NC(=O)C(C)C)ncn1 [Compound 19, N-(6-((6-Methoxy-1H-indazol-5-yl)amino)pyrimidin-4-yl)isobutyramide]",45 nM
11,"COc1cc2[nH]ncc2cc1Nc1cc(Nc2cc(Cl)ccn2)ncn1 [Compound 21, 5-(6-((4-Chloropyridin-2-yl)amino)pyrimidin-4-ylamino)-6-methoxy-1H-indazole]",78.2 nM
12,"COc1cc2[nH]ncc2cc1Nc1cc(Nc2cccc(Cl)n2)ncn1 [Compound 23, 5-(6-((6-Chloropyridin-2-yl)amino)pyrimidin-4-ylamino)-6-methoxy-1H-indazole]",31.3 nM
13,"COc1cc2[nH]ncc2cc1Nc1cc(Nc2cc(C(F)(F)F)ccn2)ncn1 [Compound 25, 5-(6-((4-(Trifluoromethyl)pyridin-2-yl)amino)pyrimidin-4-ylamino)-6-methoxy-1H-indazole]",40 nM
14,"COc1cc2[nH]ncc2cc1Nc1cc(Nc2ncccn2)ncn1 [Compound 27, 5-(6-(Pyrimidin-2-ylamino)pyrimidin-4-ylamino)-6-methoxy-1H-indazole]",43.8 nM
15,"COc1cc2[nH]ncc2cc1Nc1cc(Nc2ncccc2Cl)ncn1 [Compound 28, 5-(6-((3-Chloropyridin-2-yl)amino)pyrimidin-4-ylamino)-6-methoxy-1H-indazole]",539 nM
16,"COc1cc2[nH]ncc2cc1Nc1cc(Nc2cnccn2)ncn1 [Compound 29, 5-(6-(Pyrazin-2-ylamino)pyrimidin-4-ylamino)-6-methoxy-1H-indazole]",57.9 nM
17,"CNc1cc(Nc2cc3cn[nH]c3cc2OC)ncn1 [Compound 30, 5-(6-Methylaminopyrimidin-4-ylamino)-6-methoxy-1H-indazole]",141 nM
18,"COc1cc2[nH]ncc2cc1Nc1cc(NC2CC2)ncn1 [Compound 31, 5-(6-Cyclopropylaminopyrimidin-4-ylamino)-6-methoxy-1H-indazole formate]",126 nM
19,"COc1cc2[nH]ncc2cc1Nc1ncnc(N)c1C1=CCC(C(=O)N2CCN(C)CC2)CC1 (stereo not drawn) [Compound 33, 5-((6-Amino-5-cyclohex-3-en-1-yl (4-methylpiperazin-1-yl)methanylpyrimidin-4-yl)amino)-6-methoxy-1H-indazole formate]",94.7 nM
20,"COc1cc2[nH]ncc2cc1Nc1ncnc(N)c1C1=CCC(C(=O)N(C)C)CC1 (stereo not drawn) [Compound 34, 4-(4-Amino-6-((6-methoxy-1H-indazol-5-yl)amino)pyrimidin-5-yl)-N,N-dimethylcyclohex-3-ene-1-carboxamide formate]",450 nM
21,"CCOC(=O)c1c(N)ncnc1Nc1cc2cnn(C(=O)OC(C)(C)C)c2cc1OC [Compound 35, 1-tert-Butoxycarbonyl-5-((6-amino-5-ethoxycarbonylpyrimidin-4-yl)amino)-6-methoxyindazole]",32.5 nM
22,"CCOC(=O)c1c(N)ncnc1Nc1cc2cn[nH]c2cc1OC [Compound 36, 5-((6-Amino-5-ethoxycarbonylpyrimidin-4-yl)amino)-6-methoxy-1H-indazole dicarboxylate]",7.8 nM
23,"CCOC(=O)c1c(NC(C)=O)ncnc1Nc1cc2cnn(C(=O)OC(C)(C)C)c2cc1OC [Compound 37, 1-tert-Butoxycarbonyl-5-((6-(acetylamino)-5-ethoxycarbonylpyrimidin-4-yl)amino)-6-methoxyindazole]",23.8 nM
24,"CCOC(=O)c1c(NC(C)=O)ncnc1Nc1cc2cn[nH]c2cc1OC [Compound 38, 5-((6-(Acetylamino)-5-ethoxycarbonylpyrimidin-4-yl)amino)-6-methoxy-1H-indazole]",11.9 nM
25,"COc1cc2[nH]ncc2cc1Nc1ncnc(N)c1C(=O)O [Compound 39, 5-((6-Amino-5-carbonylpyrimidin-4-yl)amino)-6-methoxy-1H-indazole formate]",13 nM
26,COc1cc2[nH]ncc2cc1Nc1ncnc(N)c1C(=O)N(C)C [Compound 40],1140 nM

# The remaining compounds from weak to strong by IC50, led by results:
row,IC50,SMILES
1,1110 nM,"COc1cc2c(cnn2C(=O)C2CC2)cc1Nc1cc(NC(=O)C2CC2)ncn1 [Compound 14, 1-Cyclopropanoyl-5-(6-cyclopropionamidopyrimidin-4-ylamino)-6-methoxyindazole]"
2,1050 nM,COc1cc2[nH]ncc2cc1Nc1ncnc(N)c1C(=O)N1CCOCC1 [Compound 41]
3,585 nM,"COc1cc2c(cnn2C)cc1Nc1cc(NC(=O)C2CC2)ncn1 [Compound 5, 5-(6-Cyclopropionamidopyrimidin-4-ylamino)-6-methoxyl-methylindazole formate]"
4,166 nM,"COc1cc2[nH]ncc2cc1Nc1ncnc(N)c1C1=CCC(C(=O)O)CC1 (stereo not drawn) [Compound 32, 5-((6-Amino-5-cyclohex-3-ene-1-carboxypyrimidin-4-yl)amino)-6-methoxy-1H-indazole hydrochloride]"
5,64.1 nM,"COc1cc2c(cnn2C(=O)C2CCCCC2)cc1Nc1cc(NC(=O)C2CC2)ncn1 [Compound 8, 1-Cyclohexanoyl-5-(6-cyclopropionamidopyrimidin-4-ylamino)-6-methoxyindazole]"
6,44.9 nM,"CC(C)Oc1cc2[nH]ncc2cc1Nc1cc(NC(=O)C2CC2)ncn1 [Compound 7, 5-(6-cyclopropionamidopyrimidin-4-ylamino)-6-isopropoxy-1H-indazole formate]"
7,42.2 nM,"COc1cc2[nH]ncc2cc1Nc1cc(Nc2ccc(Cl)cn2)ncn1 [Compound 24, 5-(6-((5-Chloropyridin-2-yl)amino)pyrimidin-4-ylamino)-6-methoxy-1H-indazole formate]"
8,36.6 nM,"COc1cc2[nH]ncc2cc1Nc1cc(Nc2ncc(Cl)cn2)ncn1 [Compound 26, 5-(6-((5-chloropyrimidin-2-yl)amino)pyrimidin-4-ylamino)-6-methoxy-1H-indazole]"
9,29.8 nM,"CCOc1cc2[nH]ncc2cc1Nc1cc(NC(=O)C2CC2)ncn1 [Compound 6, 5-(6-Cyclopropionamidopyrimidin-4-ylamino)-6-ethoxy-1H-indazole]"
10,29.2 nM,"COc1cc2[nH]ncc2cc1Nc1cc(Nc2ccccn2)ncn1 [Compound 20, 5-(6-(Pyridin-2-ylamino)pyrimidin-4-ylamino)-6-methoxy-1H-indazole formate]"
11,23.3 nM,"COc1cc2[nH]ncc2cc1Nc1cc(Nc2ccncn2)ncn1 [Compound 22, 5-(6-(pyrimidin-4-ylamino)pyrimidin-4-ylamino)-6-methoxy-1H-indazole formate]"
12,21 nM,"COc1cc2nn(C(=O)C3CC3)cc2cc1Nc1cc(NC(=O)C2CC2)ncn1 [Compound 15, 2-Cyclopropanoyl-5-(6-cyclopropionamidopyrimidin-4-ylamino)-6-methoxyindazole]"
13,10.5 nM,"CCOC(=O)n1ncc2cc(Nc3cc(NC(=O)C4CC4)ncn3)c(OC)cc21 [Compound 18, 1-Ethoxyacyl-5-(6-cyclopropionamidopyrimidin-4-ylamino)-6-methoxyindazole]"

# Reference: patent publication US20220289719A1, “HETEROCYCLIC COMPOUNDS AS MNK INHIBITORS” (NANJING INNOCARE PHARMA TECH CO., LTD., priority 2017, published 2022)
